The nature of series [1]: Measurement of log P values by HPLC on reversed phase columns (EEC directive 79/831 Annex V.A8). The series is classed as physicochemical. Particulars: for logP: Table 1 active ingredients.
Series [2] deals with Alternaria brassicae. Put plainly: In vivo preventive test on Alternaria brassicae (leaf spot on radish). Particulars: preventive spray on radish plants, grading 6 days after contamination vs control plants. How it is done:
Radish plants (“Pernod Clair” variety), sown in starter cups on a 50/50 peat soil-pozzolana substrate and grown at 17° C., are treated at the cotyledon stage by spraying with the active ingredient prepared as described above. Plants, used as controls, are treated with the mixture of acetone/tween/DMSO/water not containing the active material. After 24 hours, the plants are contaminated by spraying the cotyledons with an aqueous suspension of Alternaria brassicae spores (50 000 spores per ml). The spores are collected from a 15-day-old culture. The contaminated radish plants are incubated at 20° C. and at 100% relative humidity. Grading (% of efficacy) is carried out 6 days after the contamination, in comparison with the control plants.

Series [3] concerns Botrytis cinerea. Put plainly: In vivo preventive test on Botrytis cinerea (grey mould). As to conditions: preventive spray on gherkin plants, grading 4 to 5 days after contamination vs control plants. Here is the method:
Gherkin plants (“Vert petit de Paris” variety), sown in starter cups on a 50/50 peat soil-pozzolana substrate and grown at 24° C., are treated at the Z11 cotyledon stage by spraying with the active ingredient prepared as described above. Plants, used as controls, are treated with the mixture of acetone/tween/DMSO/water not containing the active material. After 24 hours, the plants are contaminated by spraying the cotyledons with an aqueous suspension of cryopreserved Botrytis cinerea spores (50 000 spores per ml). The spores are suspended in a nutrient solution composed of 10 g/L of PDB, 50 g/L of D-Fructose, 2 g/L of NH4NO3 and 1 g/L of KH2PO4. The contaminated gherkin plants are incubated at 17° C. and at 90% relative humidity. Grading (% of efficacy) is carried out 4 to 5 days after the contamination, in comparison with the control plants.

The test system of series [4] is Puccinia recondita. As to the kind of experiment: In vivo preventive test on Puccinia recondita (brown rust on wheat). As to conditions: preventive spray on wheat plants, grading 12 days after contamination vs control plants. Here is the method:
Wheat plants (“Scipion” variety), sown in starter cups on a 50/50 peat soil-pozzolana substrate and grown at 22° C., are treated at the 1-leaf stage (10 cm height) by spraying with the active ingredient prepared as described above. Plants, used as controls, are treated with the mixture of acetone/tween/DMSO/water not containing the active material. After 24 hours, the plants are contaminated by spraying the leaves with an aqueous suspension of Puccinia recondita spores (100 000 spores per ml). […] The contaminated wheat plants are incubated for 24 hours at 20° C. and at 100% relative humidity, and then for 10 days at 20° C. and at 70-80% relative humidity. Grading (% of efficacy) is carried out 12 days after the contamination, in comparison with the control plants.

Series [5] concerns Uromyces appendiculatus. Put plainly: In vivo preventive test on Uromyces appendiculatus (bean rust). Particulars: preventive spray on bean plants, grading 11 days after contamination vs control plants. How it is done: Bean plants (“Saxa” variety), sown in starter cups on a 50/50 peat soil-pozzolana substrate and grown at 24° C., are treated at the 2-leaf stage (9 cm height) by spraying with the active ingredient prepared as described above. Plants, used as controls, are treated with the mixture of acetone/tween/DMSO/water not containing the active material. After 24 hours, the plants are contaminated by spraying the leaves with an aqueous suspension of Uromyces appendiculatus spores (150 000 spores per ml). […] The contaminated bean plants are incubated for 24 hours at 20° C. and at 100% relative humidity, and then for 10 days at 20° C. and at 70-80% relative humidity. Grading (% of efficacy) is carried out 11 days after the contamination, in comparison with the control plants.

The subject of series [6] is Septoria tritici. As to the kind of experiment: In vivo preventive test on Septoria tritici (leaf spot on wheat). Particulars: dose of 500 ppm; preventive spray on wheat plants; grading 24 days after contamination vs control plants. Here is the method: Wheat plants (“Scipion” variety), sown in starter cups on a 50/50 peat soil-pozzolana substrate and grown at 22° C., are treated at the 1-leaf stage (10 cm height) by spraying with the active ingredient prepared as described above. Plants, used as controls, are treated with the mixture of acetone/tween/DMSO/water not containing the active material. After 24 hours, the plants are contaminated by spraying the leaves with an aqueous suspension of cryopreserved Septoria tritici spores (500 000 spores per ml). The contaminated wheat plants are incubated for 72 hours at 18° C. and at 100% relative humidity, and then for 21 days at 90% relative humidity. Grading (% of efficacy) is carried out 24 days after the contamination, in comparison with the control plants.

Series [7] concerns Sphaerotheca fuliginea. As to the kind of experiment: In vivo preventive test on Sphaerotheca fuliginea (powdery mildew on cucurbits). As to conditions: preventive spray on gherkin plants, grading 12 days after contamination vs control plants. Here is the method:
Gherkin plants (“Vert petit de Paris” variety), sown in starter cups on a 50/50 peat soil-pozzolana substrate and grown at 24° C., are treated at the Z11 cotyledon stage by spraying with the active ingredient prepared as described above. Plants, used as controls, are treated with the mixture of acetone/tween/DMSO/water not containing the active material. After 24 hours, the plants are contaminated by spraying the cotyledons with an aqueous suspension of Sphaerotheca fuliginea spores (100 000 spores per ml). The spores are collected from infected plants. The contaminated gherkin plants are incubated at about 20° C. and at 70-80% relative humidity. Grading (% of efficacy) is carried out 12 days after the contamination, in comparison with the control plants.

The test system of series [8] is Pyrenophora teres. As to the kind of experiment: In vivo preventive test on Pyrenophora teres (net blotch on barley). As to conditions: preventive spray on barley plants, grading 14 days after contamination vs control plants. How it is done:
Barley plants (“Plaisant” variety), sown in starter cups on a 50/50 peat soil-pozzolana substrate and grown at 22° C., are treated at the 1-leaf stage (10 cm height) by spraying with the active ingredient prepared as described above. Plants, used as controls, are treated with the mixture of acetone/tween/DMSO/water not containing the active material. After 24 hours, the plants are contaminated by spraying the leaves with an aqueous suspension of Pyrenophora teres spores (12 000 spores per ml). The spores are collected from a 12-day-old culture. The contaminated barley plants are incubated for 48 hours at 20° C. and at 100% relative humidity, and then for 12 days at 20° C. at 70-80% relative humidity. Grading (% of efficacy) is carried out 14 days after the contamination, in comparison with the control plants.

Setting [9] is: method [a]: LC-MS at pH 2.7, 0.1% formic acid in water / acetonitrile, linear gradient 10% to 95% acetonitrile.
Where [10] appears, read: reversed phase HPLC column, method [a]: LC-MS at pH 2.7, 0.1% formic acid in water / acetonitrile, linear gradient 10% to 95% acetonitrile, Table 2 intermediates of formula (III-a), read-out: logP.

Where two headings read alike, the source gives them in different places.

For the compound `CC1CCC(C)(C)c2cccc(NC(=O)c3c(C(F)F)nn(C)c3F)c21` (racemic) [Example 3], in series [1] (setting [9]), the logP is 3.92[a]. The Eff. % in series [2] (dose of 500 ppm) was 93%; in series [3] (dose of 500 ppm), 100%; in series [4] (dose of 500 ppm) it was 94%; in series [5] (dose of 500 ppm), 100%.

In the case of `CC1CCC(C)(C)c2cccc(NC(=O)c3c(C(F)F)nn(C)c3Cl)c21` (racemic) [Example 4], in series [1] (setting [9]), the logP is 4.14[a]. The figures for the Eff. % in series [2] (dose of 500 ppm), in series [4] (dose of 500 ppm) and in series [5] (dose of 500 ppm) were 92%, 94% and 99%, respectively.

For the compound `CC1c2cccc(NC(=O)c3c(C(F)F)nn(C)c3Cl)c2CCC1(C)C` (racemic) [Example 11], the logP in series [1] (setting [9]) is 4.39[a]. Also, the Eff. % is given as 98% in series [4] (dose of 500 ppm) and 100% in series [5] (dose of 500 ppm).

As to `CC1CCc2c(NC(=O)c3c(C(F)F)nn(C)c3Cl)cccc2C1(C)C` (racemic) [Example 15], the logP in series [1] (setting [9]) was 4.29[a]. Moreover, the Eff. % in series [4] (dose of 500 ppm) was found to be 98%; in series [6], 75%; in series [7] (dose of 500 ppm), 70%; in series [5] (dose of 500 ppm) it was 95%.

Regarding `C=C1c2cccc(NC(=O)c3c(C(F)F)nn(C)c3Cl)c2CCC1(C)C` [Example 5], the logP in series [1] (setting [9]) is 4.14[a]. For the same compound, the Eff. % in series [3] (dose of 500 ppm) turned out to be 93%; in series [4] (dose of 500 ppm), 94%; in series [5] (dose of 500 ppm), 100%.

On to `CC1CCc2c(NC(=O)c3c(C(F)F)nn(C)c3Cl)cccc2C1C` (stereo not shown) [Example 7], for which the logP in series [1] (setting [9]) is 4.09[a]. The Eff. % in series [2] (dose of 500 ppm) is given as 97%; in series [4] (dose of 500 ppm), 100%; in series [5] (dose of 500 ppm), 100%.

As to `CC1CCc2c(NC(=O)c3c(C(F)F)nn(C)c3F)cccc2C1C` (stereo not shown) [Example 8], in series [1] (setting [9]), the logP is 3.83[a]. Besides, the Eff. % in series [2] (dose of 500 ppm) is listed as 97%; in series [8] (dose of 500 ppm), 71%; in series [4] (dose of 500 ppm), 100%; in series [7] (dose of 500 ppm) it was 85%; in series [5] (dose of 500 ppm), 99%.

Consider `Cn1nc(C(F)F)c(C(=O)Nc2ccc(F)c3c2CCCC3(C)C)c1Cl` [Example 16], for which, in series [1] (setting [9]), the logP is 4.01[a]. For the same compound, the Eff. % is given as 97% in series [4] (dose of 500 ppm) and 100% in series [5] (dose of 500 ppm).

For `Cn1nc(C(F)F)c(C(=S)Nc2ccc(F)c3c2CCCC3(C)C)c1Cl` [Example 17], the logP in series [1] (setting [9]) is 4.24[a]. The Eff. % in series [4] (dose of 500 ppm) and in series [5] (dose of 500 ppm) was 100% in each case.

In the case of `CCON=C1CCCc2c(NC(=O)c3c(C(F)F)nn(C)c3F)cccc21` [Example 18], the logP in series [1] (setting [9]) is 3.31[a]. The results for the Eff. % in series [2] (dose of 500 ppm), in series [8] (dose of 500 ppm) and in series [5] (dose of 500 ppm) were 83%, 92% and 81%, respectively.

Regarding `CON=C1CCCc2c(NC(=O)c3c(C(F)F)nn(C)c3F)cccc21` [Example 19], the logP in series [1] (setting [9]) was 2.86[a]. Besides, the Eff. % in series [2] (dose of 500 ppm) and in series [3] (dose of 500 ppm) was 96% throughout.

As for `CCON=C1CCCc2c(NC(=O)c3c(C(F)F)nn(C)c3Br)cccc21` [Example 20], in series [1] (setting [9]), the logP is 3.57[a].

Turning to `CCON=C1CCCc2c(NC(=O)c3c(C(F)F)nn(C)c3Cl)cccc21` [Example 21], in series [1] (setting [9]), the logP was 3.55[a]. In addition, the Eff. % in series [8] (dose of 500 ppm) is 75%; in series [4] (dose of 500 ppm) it was 94%.

Consider `Cn1nc(C(F)F)c(C(=O)Nc2cccc3c2CCC(C)(C)C3)c1Br` [Example 23], for which the logP in series [1] (setting [9]) was 4.04[a]. The Eff. % in series [4] (dose of 500 ppm) was determined as 79%; in series [5] (dose of 500 ppm), 96%.

With `Cn1nc(C(F)F)c(C(=O)Nc2ccc(F)c3c2CCCC3(C)C)c1F` [Example 24], the logP in series [1] (setting [9]) was 3.76[a]. For the same compound, the Eff. % is on record as 75% in series [2] (dose of 500 ppm), 97% in series [4] (dose of 500 ppm) and 100% in series [5] (dose of 500 ppm).

Consider `CON=C1CCCc2c(NC(=O)c3c(C(F)F)nn(C)c3Br)cccc21` [Example 26], for which, in series [1] (setting [9]), the logP was 3.13[a].

On to `Cn1nc(C(F)F)c(C(=O)Nc2cccc3c2C(C)(C)CCC3)c1Cl` [Example 27], for which the logP in series [1] (setting [9]) is 3.69[a].

With `CON=C1CCCc2c(NC(=O)c3c(C(F)F)nn(C)c3Cl)cccc21` [Example 28], the logP in series [1] (setting [9]) was 3.09[a].

In the case of `Cn1nc(C(F)F)c(C(=O)Nc2cccc3c2C(C)(C)CCC3)c1F` [Example 29], the logP in series [1] (setting [9]) was 3.44[a].

On to `Cn1nc(C(F)F)c(C(=S)Nc2cccc3c2CCC(C)(C)C3)c1Br` [Example 31], for which, in series [1] (setting [9]), the logP is 4.11[a].

For the compound `Cn1nc(C(F)F)c(C(=S)Nc2cccc3c2CCC(C)(C)C3)c1F` [Example 32], the logP in series [1] (setting [9]) is 3.99[a]. The Eff. % in series [2] (dose of 100 ppm) was determined as 75%; in series [3] (dose of 100 ppm), 73%; in series [8] (dose of 100 ppm), 83%; in series [4] (dose of 100 ppm), 94%; in series [7] (dose of 100 ppm) it was 98%; in series [5] (dose of 100 ppm), 97%.

Regarding `Cn1nc(C(F)F)c(C(=S)Nc2cccc3c2CCC(C)(C)C3)c1Cl` [Example 33, 5-chloro-3-(difluoromethyl)-N-(6,6-dimethyl-5,6,7,8-tetrahydronaphthalen-1-yl)-1-methyl-1H-pyrazole-4-carbothioamide], in series [1] (pH 2.7), the chromatographic logP worked out at 4.11. Further, the Eff. % is given as 75% in series [2] (dose of 100 ppm), 94% in series [4] (dose of 100 ppm) and 99% in series [5] (dose of 100 ppm).

Take `CC1(C)CCCc2c(N)cccc21` [III-a-1, 5,5-dimethyl-5,6,7,8-tetrahydronaphthalen-1-amine]: the chromatographic logP in series [1] (setting [10]) was found to be 1.69.

Take `CC1(C)CCc2c(N)cccc2C1` [III-a-12, 6,6-dimethyl-5,6,7,8-tetrahydronaphthalen-1-amine]: in series [1] (setting [10]), the chromatographic logP worked out at 1.86.

The values above are taken from US9204646B2, “Pyrazole tetrahydronaphthyl carboxamides” (BAYER CROPSCIENCE AG, priority 2012, dated 2015).
